Test results from the NIST ThermoML archive (doi:10.1016/j.tca.2006.02.029).
± gives the expanded uncertainty stated by the source.

Test: excess molar enthalpy (molar enthalpy of mixing); xn = mol fraction of the nth substance listed
Conditions: 1065 K, 101 kPa, Liquid, Drop calorimetry

[Fe] [iron] + [Sb]
Conditions | excess molar enthalpy [kcal/mol]
x1 = 0.0023 | 0.0117 ± 0.000359
x1 = 0.0025 | 0.00933 ± 0.000335
x1 = 0.0049 | 0.0176 ± 0.000406
x1 = 0.0055 | 0.0233 ± 0.000478
x1 = 0.0075 | 0.0279 ± 0.000526
x1 = 0.008 | 0.0317 ± 0.00055
x1 = 0.0102 | 0.0359 ± 0.000598
x1 = 0.0114 | 0.0427 ± 0.000669
x1 = 0.0129 | 0.0455 ± 0.000693
x1 = 0.0135 | 0.0475 ± 0.000717
x1 = 0.0144 | 0.0535 ± 0.000765
x1 = 0.0148 | 0.0479 ± 0.000717
x1 = 0.0157 | 0.0538 ± 0.000765
x1 = 0.0187 | 0.0674 ± 0.000908
x1 = 0.0188 | 0.0624 ± 0.00086
x1 = 0.0232 | 0.079 ± 0.00103
x1 = 0.0271 | 0.0916 ± 0.00115
x1 = 0.029 | 0.0888 ± 0.00112
x1 = 0.0292 | 0.0913 ± 0.00115
x1 = 0.0316 | 0.105 ± 0.00129
x1 = 0.0359 | 0.118 ± 0.00141
x1 = 0.0407 | 0.131 ± 0.00155
x1 = 0.0442 | 0.131 ± 0.00155
x1 = 0.0445 | 0.128 ± 0.00153
x1 = 0.0455 | 0.145 ± 0.0017
x1 = 0.0591 | 0.165 ± 0.00189
x1 = 0.0609 | 0.168 ± 0.00191
x1 = 0.0762 | 0.201 ± 0.00225
x1 = 0.0765 | 0.204 ± 0.00227
x1 = 0.0942 | 0.229 ± 0.00263
x1 = 0.096 | 0.243 ± 0.00263
x1 = 0.1139 | 0.259 ± 0.00287
x1 = 0.1167 | 0.283 ± 0.00311
x1 = 0.1336 | 0.313 ± 0.00335
x1 = 0.1353 | 0.299 ± 0.00311
